From PubChem BioAssay AID2060895 (Molecular Pharmacology Branch, DTP, NCI, 2025)

System: PDC 899932-113-R3-J6 complex spheroid viability
Assay: Anticancer human tumor 899932-113-R3-J6-PDC patient-derived melanoma cell line growth inhibition [RAS]
Settings: for IC50: curve of first compound; for viability, T/C: stronger effect = lower value
In short: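 Multi-cell-type spheroids: tumor cells plus HUVEC endothelial cells and mesenchymal stem cells. RAS-pathway inhibitors were combined with targeted agents, each dosed in half-log steps down from clinical Cmax, or from 10 microM when Cmax was unknown.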

[1] = second compound 0.0316 µM, first compound 0.0316 µM
[2] = second compound 0.0316 µM, first compound 0.1 µM
[3] = second compound 0.0316 µM, first compound 0.316 µM
[4] = second compound 0.0316 µM, first compound 1 µM
[5] = second compound 0.0316 µM, first compound 3.16 µM
[6] = second compound 0.0316 µM, first compound 10 µM
[7] = second compound 0.1 µM, first compound 0.0316 µM
[8] = second compound 0.1 µM, first compound 0.1 µM
[9] = second compound 0.1 µM, first compound 0.316 µM
[10] = second compound 0.1 µM, first compound 1 µM
[11] = second compound 0.1 µM, first compound 3.16 µM
[12] = second compound 0.1 µM, first compound 10 µM
[13] = second compound 0.316 µM, first compound 0.0316 µM
[14] = second compound 0.316 µM, first compound 0.1 µM
[15] = second compound 0.316 µM, first compound 0.316 µM
[16] = second compound 0.316 µM, first compound 1 µM
[17] = second compound 0.316 µM, first compound 3.16 µM
[18] = second compound 0.316 µM, first compound 10 µM
[19] = second compound 1 µM, first compound 0.0316 µM
[20] = second compound 1 µM, first compound 0.1 µM
[21] = second compound 1 µM, first compound 0.316 µM
[22] = second compound 1 µM, first compound 1 µM
[23] = second compound 1 µM, first compound 3.16 µM
[24] = second compound 1 µM, first compound 10 µM
[25] = second compound 3.16 µM, first compound 0.0316 µM
[26] = second compound 3.16 µM, first compound 0.1 µM
[27] = second compound 3.16 µM, first compound 0.316 µM
[28] = second compound 3.16 µM, first compound 1 µM
[29] = second compound 3.16 µM, first compound 3.16 µM
[30] = second compound 3.16 µM, first compound 10 µM
[31] = second compound 10 µM, first compound 0.0316 µM
[32] = second compound 10 µM, first compound 0.1 µM
[33] = second compound 10 µM, first compound 0.316 µM
[34] = second compound 10 µM, first compound 1 µM
[35] = second compound 10 µM, first compound 3.16 µM
[36] = second compound 10 µM, first compound 10 µM
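Throughout, for viability, T/C: spheroids exposed to agents for seven days before readout; 100% = DMSO vehicle control wells.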

Compound: CC(Nc1ccc2c(c1)OCCn1cc(N3C(=O)OCC3C(F)F)nc1-2)C(N)=O (stereo unspecified) + C#Cc1c(F)ccc2cc(O)cc(-c3ncc4c(N5CC6CCC(C5)N6)nc(OCC56CCCN5CC(F)C6)nc4c3F)c12
- IC50 (second compound 0.0316 µM): 1.78 µM
- IC50 (second compound 0.1 µM): 2.61 µM
- IC50 (second compound 0.316 µM): 2.44 µM
- IC50 (second compound 1 µM): 2.24 µM
- IC50 (second compound 3.16 µM): 4.56 µM
- IC50 (second compound 10 µM): 2.76 µM
- viability, T/C [1]: 88.4%
- viability, T/C [2]: 87.2%
- viability, T/C [3]: 58.2%
- viability, T/C [4]: 58%
- viability, T/C [5]: 47.4%
- viability, T/C [6]: 30.6%
- viability, T/C [7]: 88.8%
- viability, T/C [8]: 78.6%
- viability, T/C [9]: 70.1%
- viability, T/C [10]: 57.3%
- viability, T/C [11]: 51.7%
- viability, T/C [12]: 35.1%
- viability, T/C [13]: 97.7%
- viability, T/C [14]: 83.3%
- viability, T/C [15]: 66%
- viability, T/C [16]: 63.5%
- viability, T/C [17]: 49.2%
- viability, T/C [18]: 33.8%
- viability, T/C [19]: 93%
- viability, T/C [20]: 76%
- viability, T/C [21]: 64.9%
- viability, T/C [22]: 61.5%
- viability, T/C [23]: 44.2%
- viability, T/C [24]: 39.8%
- viability, T/C [25]: 101%
- viability, T/C [26]: 76.6%
- viability, T/C [27]: 71.4%
- viability, T/C [28]: 65%
- viability, T/C [29]: 60.9%
- viability, T/C [30]: 38%
- viability, T/C [31]: 102%
- viability, T/C [32]: 90%
- viability, T/C [33]: 70%
- viability, T/C [34]: 63.9%
- viability, T/C [35]: 52.5%
- viability, T/C [36]: 32.5%

Compound: C=CC(=O)N1CCN(c2nc(OCC3CCCN3C)nc3c(F)c(-c4nc(N)cc(C)c4C(F)(F)F)c(Cl)cc23)C(C)C1 (stereo unspecified) + CCn1c(-c2cccnc2C(C)OC)c2c3cc(ccc31)N1CCOC(CC(NC(=O)C(C(C)C)N(C)C(=O)C3(F)CCN(C(=O)C#CC(C)(C)N(C)C)CC3)C(=O)N3CCCC(N3)C(=O)OCC(C)(C)C2)C1
- IC50 (second compound 0.000949 µM): > 1 µM
- IC50 (second compound 0.003 µM): > 1 µM
- IC50 (second compound 0.00949 µM): > 1 µM
- IC50 (second compound 0.03 µM): > 1 µM
- IC50 (second compound 0.0949 µM): > 1 µM
- IC50 (second compound 0.3 µM): > 1 µM
- viability, T/C (second compound 0.000949 µM, first compound 0.00316 µM): 113%
- viability, T/C (second compound 0.000949 µM, first compound 0.01 µM): 101%
- viability, T/C (second compound 0.000949 µM, first compound 0.0316 µM): 118%
- viability, T/C (second compound 0.000949 µM, first compound 0.1 µM): 106%
- viability, T/C (second compound 0.000949 µM, first compound 0.316 µM): 108%
- viability, T/C (second compound 0.000949 µM, first compound 1 µM): 105%
- viability, T/C (second compound 0.003 µM, first compound 0.00316 µM): 107%
- viability, T/C (second compound 0.003 µM, first compound 0.01 µM): 118%
- viability, T/C (second compound 0.003 µM, first compound 0.0316 µM): 105%
- viability, T/C (second compound 0.003 µM, first compound 0.1 µM): 108%
- viability, T/C (second compound 0.003 µM, first compound 0.316 µM): 108%
- viability, T/C (second compound 0.003 µM, first compound 1 µM): 104%
- viability, T/C (second compound 0.00949 µM, first compound 0.00316 µM): 110%
- viability, T/C (second compound 0.00949 µM, first compound 0.01 µM): 107%
- viability, T/C (second compound 0.00949 µM, first compound 0.0316 µM): 102%
- viability, T/C (second compound 0.00949 µM, first compound 0.1 µM): 107%
- viability, T/C (second compound 0.00949 µM, first compound 0.316 µM): 112%
- viability, T/C (second compound 0.00949 µM, first compound 1 µM): 106%
- viability, T/C (second compound 0.03 µM, first compound 0.00316 µM): 106%
- viability, T/C (second compound 0.03 µM, first compound 0.01 µM): 97%
- viability, T/C (second compound 0.03 µM, first compound 0.0316 µM): 110%
- viability, T/C (second compound 0.03 µM, first compound 0.1 µM): 110%
- viability, T/C (second compound 0.03 µM, first compound 0.316 µM): 114%
- viability, T/C (second compound 0.03 µM, first compound 1 µM): 104%
- viability, T/C (second compound 0.0949 µM, first compound 0.00316 µM): 101%
- viability, T/C (second compound 0.0949 µM, first compound 0.01 µM): 102%
- viability, T/C (second compound 0.0949 µM, first compound 0.0316 µM): 96%
- viability, T/C (second compound 0.0949 µM, first compound 0.1 µM): 101%
- viability, T/C (second compound 0.0949 µM, first compound 0.316 µM): 95.2%
- viability, T/C (second compound 0.0949 µM, first compound 1 µM): 92.8%
- viability, T/C (second compound 0.3 µM, first compound 0.00316 µM): 91.2%
- viability, T/C (second compound 0.3 µM, first compound 0.01 µM): 87%
- viability, T/C (second compound 0.3 µM, first compound 0.0316 µM): 92.1%
- viability, T/C (second compound 0.3 µM, first compound 0.1 µM): 87.9%
- viability, T/C (second compound 0.3 µM, first compound 0.316 µM): 84.9%
- viability, T/C (second compound 0.3 µM, first compound 1 µM): 90.9%

Compound: CC(=O)OC12COC1CC(O)C1(C)C(=O)C(O)C3=C(C)C(OC(=O)C(O)C(NC(=O)OC(C)(C)C)c4ccccc4)CC(O)(C(OC(=O)c4ccccc4)C21)C3(C)C (stereo unspecified) + C#Cc1c(F)ccc2cc(O)cc(-c3ncc4c(N5CC6CCC(C5)N6)nc(OCC56CCCN5CC(F)C6)nc4c3F)c12
- IC50 (second compound 0.0316 µM): < 0.0316 µM
- IC50 (second compound 0.1 µM): < 0.0316 µM
- IC50 (second compound 0.316 µM): < 0.0316 µM
- IC50 (second compound 1 µM): < 0.0316 µM
- IC50 (second compound 3.16 µM): < 0.0316 µM
- IC50 (second compound 10 µM): < 0.0316 µM
- viability, T/C [1]: 33.1%
- viability, T/C [2]: 32.1%
- viability, T/C [3]: 39.9%
- viability, T/C [4]: 48.3%
- viability, T/C [5]: 67.1%
- viability, T/C [6]: 67.7%
- viability, T/C [7]: 31.8%
- viability, T/C [8]: 31.7%
- viability, T/C [9]: 36.1%
- viability, T/C [10]: 49.5%
- viability, T/C [11]: 74.5%
- viability, T/C [12]: 81.8%
- viability, T/C [13]: 32.3%
- viability, T/C [14]: 30.5%
- viability, T/C [15]: 38.8%
- viability, T/C [16]: 53.4%
- viability, T/C [17]: 67.4%
- viability, T/C [18]: 82.8%
- viability, T/C [19]: 30.7%
- viability, T/C [20]: 35%
- viability, T/C [21]: 41.3%
- viability, T/C [22]: 45.5%
- viability, T/C [23]: 75.1%
- viability, T/C [24]: 78.9%
- viability, T/C [25]: 32.1%
- viability, T/C [26]: 34.4%
- viability, T/C [27]: 37.5%
- viability, T/C [28]: 49.6%
- viability, T/C [29]: 63.2%
- viability, T/C [30]: 73.9%
- viability, T/C [31]: 35.3%
- viability, T/C [32]: 28.9%
- viability, T/C [33]: 36.4%
- viability, T/C [34]: 46.5%
- viability, T/C [35]: 66.4%
- viability, T/C [36]: 69.7%
